From the supplement of paper PMC10307832

What was measured:
Test in all cases: relative viability (nuclei count vs DMSO), 5 days (fraction); higher = more cells survive
[1] = compound: CC1=CC(=CC=C1)NC2=NC(=CS2)C3=CC=NC=C3 + CC(=O)c1c(C)c2cnc(Nc3ccc(N4CCNCC4)cn3)nc2n(C2CCCC2)c1=O [Palbociclib] (partner 0.5 µM)
How it was run: (§1)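 A single step with final 0.05% Triton X-100, 1% formaldehyde and 1 ug/ml Hoechst fixed the cells and stained nuclei 5 days after treatment. Lung cancer cell lines in 1536-well plates had been treated by pin tool the day after seeding with one drug alone or a fixed anchor-drug dose plus five library-drug doses (not always all listed) in √10 steps, and nuclei were counted on 4× images. Relative viability is the ratio of nuclei in treated wells to nuclei in vehicle wells, taken as the median of duplicate plates.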

[2] = compound: CC1=CC(=CC=C1)NC2=NC(=CS2)C3=CC=NC=C3 + CS(=O)(=O)CCNCc1ccc(-c2ccc3ncnc(Nc4ccc(OCc5cccc(F)c5)c(Cl)c4)c3c2)o1 [Lapatinib] (partner 2 µM)
How it was run: as §1

Masitinib + Luminespib = compound: Cc1ccc(NC(=O)c2ccc(CN3CCN(C)CC3)cc2)cc1Nc1nc(-c2cccnc2)cs1 [Masitinib] + CCNC(=O)c1noc(-c2cc(C(C)C)c(O)cc2O)c1-c1ccc(CN2CCOCC2)cc1 [Luminespib] (partner 0.01 µM)
How it was run: as §1

Masitinib + Tozasertib = compound: Cc1ccc(NC(=O)c2ccc(CN3CCN(C)CC3)cc2)cc1Nc1nc(-c2cccnc2)cs1 [Masitinib] + Cc1cc(Nc2cc(N3CCN(C)CC3)nc(Sc3ccc(NC(=O)C4CC4)cc3)n2)n[nH]1 [Tozasertib] (partner 0.1 µM)
How it was run: as §1

Cell Line UMC-11 has a relative viability ([1]; first compound 0.08 µM) of 0.339, a relative viability ([1]; first compound 0.253 µM) of 0.311 and a relative viability ([1]; first compound 0.8 µM) of 0.305. It also gave a relative viability ([1]; first compound 2.53 µM) of 0.334, a relative viability ([1]; first compound 8 µM) of 0.313 and a relative viability ([2]; first compound 0.08 µM) of 0.839. The relative viability ([2]; first compound 0.253 µM) was 0.85, the relative viability ([2]; first compound 0.8 µM) was 0.885 and the relative viability ([2]; first compound 2.53 µM) was 0.934. It also gave a relative viability ([2]; first compound 8 µM) of 1.02, a relative viability (Masitinib + Luminespib; first compound 0.03162 µM) of 1.08 and a relative viability (Masitinib + Luminespib; first compound 0.1 µM) of 1.13. For the same cell line, the relative viability (Masitinib + Luminespib; first compound 0.3162 µM) was 1.17, the relative viability (Masitinib + Luminespib; first compound 1 µM) was 1.12 and the relative viability (Masitinib + Tozasertib; first compound 0.01 µM) was 0.204. The relative viability (Masitinib + Tozasertib; first compound 0.03162 µM) was 0.207, the relative viability (Masitinib + Tozasertib; first compound 0.1 µM) was 0.198 and the relative viability (Masitinib + Tozasertib; first compound 0.3162 µM) was 0.211. The relative viability (Masitinib + Tozasertib; first compound 1 µM) was 0.195.
